The assay deals with P. falciparum K1 (strain resistant to chloroquine and pyrimethamine), erythrocytic stages. In words: Plasmodium falciparum in vitro assay, [3H] hypoxanthine incorporation. It is filed as cell-based. The conditions noted are these: Plasmodium falciparum, K1, P. falciparum strain K1; [3H] hypoxanthine incorporation; read-out: IC50 (nM) on K1. The gist of the method:
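K1 strain parasites grown in human red cells, 2.5% haematocrit, 0.3% parasitaemia, 37 °C, 4% CO2/3% O2; compounds in seven serial doubling dilutions.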

Each structure is given as a SMILES string.

On to `CC(=O)N1CCN(c2ccc(CN(C(=O)C=Cc3ccc(C(F)(F)F)cc3)[C@@H](Cc3ccccc3)C(=O)N(C)CCOCC3CC3)cc2)CC1` [Example 207, (S)-N-[4-(4-Acetyl-piperazin-1-yl)-benzyl]-N-{1-[(2-cyclopropylmethoxy-ethyl)-methyl-carbamoyl]-2-phenyl-ethyl}-3-(4-trifluoromethyl-phenyl)-acrylamide], for which the concentration for half-maximal inhibition (IC50) (in general, the concentration that inhibits the measured activity by half) came to 40 nM.
`CC(=O)N1CCN(c2ccc(CN(C(=O)C=Cc3ccc(C(F)(F)F)nc3)[C@@H](Cc3ccccc3)C(=O)N(C)CCOCc3ccncc3)cc2)CC1` [Example 208, (S)-N-[4-(4-Acetyl-piperazin-1-yl)-benzyl]-N-(1-{methyl-[2-(pyridin-4-ylmethoxy)-ethyl]-carbamoyl}-2-phenyl-ethyl)-3-(6-trifluoromethyl-pyridin-3-yl)-acrylamide]: the IC50 was 57 nM.
Regarding `CC(=O)N1CCN(c2ccc(CN(C(=O)C=Cc3ccc(C(F)(F)F)nc3)[C@@H](Cc3ccccc3)C(=O)N(C)CCOCc3cc(C)on3)cc2)CC1` [Example 209, (S)-N-[4-(4-Acetyl-piperazin-1-yl)-benzyl]-N-(1-{methyl-[2-(5-methyl-isoxazol-3-ylmethoxy)-ethyl]-carbamoyl}-2-phenyl-ethyl)-3-(6-trifluoromethyl-pyridin-3-yl)-acrylamide], the IC50 amounted to 31 nM.
The figure for `CC(=O)N1CCN(c2ccc(CN(C(=O)C=Cc3ccc(C(F)(F)F)cc3)[C@@H](Cc3ccccc3)C(=O)N(C)CCOCCOCc3ccccc3)cc2)CC1` [Example 210, (S)-N-[4-(4-Acetyl-piperazin-1-yl)-benzyl]-N-(1-{[2-(2-benzyloxy-ethoxy)-ethyl]-methyl-carbamoyl}-2-phenyl-ethyl)-3-(4-trifluoromethyl-phenyl)-acrylamide] is 28 nM; for `CC(=O)N1CCN(c2ccc(CN(C(=O)C=Cc3ccc(C(F)(F)F)cc3)[C@@H](Cc3ccccc3)C(=O)N(C)CCOCC#N)cc2)CC1` [Example 211, (S)-N-[4-(4-Acetyl-piperazin-1-yl)-benzyl]-N-{1-[(2-cyanomethoxy-ethyl)-methyl-carbamoyl]-2-phenyl-ethyl}-3-(4-trifluoromethyl-phenyl)-acrylamide] it is 18 nM.
Next, `C=CCOCCN(C)C(=O)[C@H](Cc1ccccc1)N(Cc1ccc(N2CCN(C(C)=O)CC2)cc1)C(=O)C=Cc1ccc(C(F)(F)F)cc1` [Example 212, (S)-N-[4-(4-Acetyl-piperazin-1-yl)-benzyl]-N-{1-[(2-allyloxy-ethyl)-methyl-carbamoyl]-2-phenyl-ethyl}-3-(4-trifluoromethyl-phenyl)-acrylamide]: 20 nM.
As for `CC(=O)N1CCN(c2ccc(CN(C(=O)C=Cc3ccc(C(F)(F)F)cc3)[C@@H](Cc3ccccc3)C(=O)N(C)CCOCC(N)=O)cc2)CC1` [Example 213, (S)-N-[4-(4-Acetyl-piperazin-1-yl)-benzyl]-N-{1-[(2-carbamoylmethoxy-ethyl)-methyl-carbamoyl]-2-phenyl-ethyl}-3-(4-trifluoromethyl-phenyl)-acrylamide], the half-inhibitory concentration (IC50) turned out to be 72 nM.
Take `CC(=O)N1CCN(c2ccc(CN(C(=O)C=Cc3ccc(C(F)(F)F)cc3)[C@@H](Cc3ccccc3)C(=O)N(C)CCOCc3ccccn3)cc2)CC1` [Example 214, (S)-N-[4-(4-Acetyl-piperazin-1-yl)-benzyl]-N-(1-{methyl-[2-(pyridin-2-ylmethoxy)-ethyl]-carbamoyl}-2-phenyl-ethyl)-3-(4-trifluoromethyl-phenyl)-acrylamide]: the IC50 amounted to 23 nM.
Regarding `CC(=O)N1CCN(c2ccc(CN(C(=O)C=Cc3ccc(C(F)(F)F)nc3)[C@@H](Cc3ccccc3)C(=O)N(C)CCOCc3ccccn3)cc2)CC1` [Example 215, (S)-N-[4-(4-Acetyl-piperazin-1-yl)-benzyl]-N-(1-{methyl-[2-(pyridin-2-ylmethoxy)-ethyl]-carbamoyl}-2-phenyl-ethyl)-3-(6-trifluoromethyl-pyridin-3-yl)-acrylamide], the 50% inhibitory concentration (IC50) came out at 86 nM.
In the case of `CC(=O)N1CCN(c2ccc(CN(C(=O)C=Cc3ccc(C(F)(F)F)nc3)[C@@H](Cc3ccccc3)C(=O)N(C)CCOCCOCc3ccccc3)cc2)CC1` [Example 216, (S)-N-[4-(4-Acetyl-piperazin-1-yl)-benzyl]-N-(1-{[2-(2-benzyloxy-ethoxy)-ethyl]-methyl-carbamoyl}-2-phenyl-ethyl)-3-(6-trifluoromethyl-pyridin-3-yl)-acrylamide], the IC50 is 94 nM.
Next, `CC(=O)N1CCN(c2ccc(CN(C(=O)C=Cc3ccc(C(F)(F)F)nc3)[C@@H](Cc3ccccc3)C(=O)N(C)CCOCC#N)cc2)CC1` [Example 217, (S)-N-[4-(4-Acetyl-piperazin-1-yl)-benzyl]-N-{1-[(2-cyanomethoxy-ethyl)-methyl-carbamoyl]-2-phenyl-ethyl}-3-(6-trifluoromethyl-pyridin-3-yl)-acrylamide]: 32 nM.
Turning to `C=CCOCCN(C)C(=O)[C@H](Cc1ccccc1)N(Cc1ccc(N2CCN(C(C)=O)CC2)cc1)C(=O)C=Cc1ccc(C(F)(F)F)nc1` [Example 218, (S)-N-[4-(4-Acetyl-piperazin-1-yl)-benzyl]-N-{1-[(2-allyloxy-ethyl)-methyl-carbamoyl]-2-phenyl-ethyl}-3-(6-trifluoromethyl-pyridin-3-yl)-acrylamide], the half-maximal inhibitory concentration (IC50) came to 40 nM.
As to `CN(CCN(C)C(=O)[C@H](Cc1ccccc1)N(Cc1ccc(-c2ccccn2)cc1)C(=O)C=Cc1ccc(C(F)(F)F)cc1)Cc1ccc(Br)o1` [Example 219, (S)-N-[1-({2-[(5-Bromo-furan-2-ylmethyl)-methyl-amino]-ethyl}-methyl-carbamoyl)-2-phenyl-ethyl]-N-(4-pyridin-2-yl-benzyl)-3-(4-trifluoromethyl-phenyl)-acrylamide], the concentration for half-maximal inhibition (IC50) came to 52 nM.
In the case of `CN(CCN(C)C(=O)[C@H](Cc1ccccc1)N(Cc1ccc(-c2ccccn2)cc1)C(=O)C=Cc1ccc(C(F)(F)F)cc1)Cc1ccccc1` [Example 220, (S)-N-(1-{[2-(Benzyl-methyl-amino)-ethyl]-methyl-carbamoyl}-2-phenyl-ethyl)-N-(4-pyridin-2-yl-benzyl)-3-(4-trifluoromethyl-phenyl)-acrylamide], the IC50 turned out to be 29 nM.
`CN(CCN(C)C(=O)[C@H](Cc1ccccc1)N(Cc1ccc(-c2ccccn2)cc1)C(=O)C=Cc1ccc(C(F)(F)F)cc1)Cc1ccc(Cl)nc1` [Example 221, (S)-N-[1-({2-[(6-Chloro-pyridin-3-ylmethyl)-methyl-amino]-ethyl}-methyl-carbamoyl)-2-phenyl-ethyl]-N-(4-pyridin-2-yl-benzyl)-3-(4-trifluoromethyl-phenyl)-acrylamide]: the IC50 stood at 20 nM.
As for `CN(CCN(C)C(=O)[C@H](Cc1ccccc1)N(Cc1ccc(-c2ccccn2)cc1)C(=O)C=Cc1ccc(C(F)(F)F)cc1)Cc1ccoc1` [Example 222, (S)-N-(1-{[2-(Furan-3-ylmethyl-methyl-amino)-ethyl]-methyl-carbamoyl}-2-phenyl-ethyl)-N-(4-pyridin-2-yl-benzyl)-3-(4-trifluoromethyl-phenyl)-acrylamide], the IC50 came out at 13 nM.
The figure for `CN(CCN(C)C(=O)[C@H](Cc1ccccc1)N(Cc1ccc(-c2ccccn2)cc1)C(=O)C=Cc1ccc(C(F)(F)F)cc1)Cc1ccco1` [Example 223, (S)-N-(1-{[2-(Furan-2-ylmethyl-methyl-amino)-ethyl]-methyl-carbamoyl}-2-phenyl-ethyl)-N-(4-pyridin-2-yl-benzyl)-3-(4-trifluoromethyl-phenyl)-acrylamide] is 25 nM; for `CN(CCN(C)C(=O)[C@H](Cc1ccccc1)N(Cc1ccc(-c2ccccn2)cc1)C(=O)C=Cc1ccc(C(F)(F)F)cc1)Cc1ccccn1` [Example 224, (S)-N-(1-{Methyl-[2-(methyl-pyridin-2-ylmethyl-amino)-ethyl]-carbamoyl}-2-phenyl-ethyl)-N-(4-pyridin-2-yl-benzyl)-3-(4-trifluoromethyl-phenyl)-acrylamide] it is 29 nM; for `CN(CCN(C)C(=O)[C@H](Cc1ccccc1)N(Cc1ccc(-c2ccccn2)cc1)C(=O)C=Cc1ccc(C(F)(F)F)cc1)Cc1cccs1` [Example 225, (S)-N-(1-{Methyl-[2-(methyl-thiophen-2-ylmethyl-amino)-ethyl]-carbamoyl}-2-phenyl-ethyl)-N-(4-pyridin-2-yl-benzyl)-3-(4-trifluoromethyl-phenyl)-acrylamide] it is 20 nM.
As for `CN(CCN(C)C(=O)[C@H](Cc1ccccc1)N(Cc1ccc(-c2ccccn2)cc1)C(=O)C=Cc1ccc(C(F)(F)F)cc1)Cc1ccc(Cl)s1` [Example 226, (S)-N-[1-({2-[(5-Chloro-thiophen-2-ylmethyl)-methyl-amino]-ethyl}-methyl-carbamoyl)-2-phenyl-ethyl]-N-(4-pyridin-2-yl-benzyl)-3-(4-trifluoromethyl-phenyl)-acrylamide], the concentration for half-maximal inhibition (IC50) amounted to 75 nM.
For the compound `CN(CCN(C)C(=O)[C@H](Cc1ccccc1)N(Cc1ccc(-c2ccccn2)cc1)C(=O)C=Cc1ccc(C(F)(F)F)cc1)Cc1ccc(Br)nc1` [Example 227, (S)-N-[1-({2-[(6-Bromo-pyridin-3-ylmethyl)-methyl-amino]-ethyl}-methyl-carbamoyl)-2-phenyl-ethyl]-N-(4-pyridin-2-yl-benzyl)-3-(4-trifluoromethyl-phenyl)-acrylamide], the IC50 amounted to 18 nM.
As for `CN(CCN(C)C(=O)[C@H](Cc1ccccc1)N(Cc1ccc(-c2ccccn2)cc1)C(=O)C=Cc1ccc(C(F)(F)F)cc1)Cc1ccc(CO)o1` [Example 228, (S)-N-[1-({2-[(5-Hydroxymethyl-furan-2-ylmethyl)-methyl-amino]-ethyl}-methyl-carbamoyl)-2-phenyl-ethyl]-N-(4-pyridin-2-yl-benzyl)-3-(4-trifluoromethyl-phenyl)-acrylamide], the IC50 was 9 nM.
`COc1ccc(CN(C)CCN(C)C(=O)[C@H](Cc2ccccc2)N(Cc2ccc(-c3ccccn3)cc2)C(=O)C=Cc2ccc(C(F)(F)F)cc2)cn1` [Example 229, (S)-N-[1-({2-[(6-Methoxy-pyridin-3-ylmethyl)-methyl-amino]-ethyl}-methyl-carbamoyl)-2-phenyl-ethyl]-N-(4-pyridin-2-yl-benzyl)-3-(4-trifluoromethyl-phenyl)-acrylamide]: the half-inhibitory concentration (IC50) came out at 9 nM.

(Values after US20110224210A1, “NOVEL BIS-AMIDES AS ANTI-MALARIAL AGENTS” (priority 2008, published 2011).)
